Data from ChEMBL document CHEMBL1135282, “Novel potent antagonists of human neuropeptide Y Y5 receptor. Part 1: 2-oxobenzothiazolin-3-acetic acid derivatives” (Bioorg Med Chem Lett, 2002).

Key:
[1] = target: T1, Neuropeptide Y receptor type 5 (Homo sapiens, UniProt Q15761); assay: Inhibitory concentration of total specific binding of [125I]- -PYY to HEK 293 cells transfected with Human NPY-Y5 cDNA (compound prepared by manual synthesis technique); format: cell-based, HEK293
T1 sequence (Q15761 whole entry): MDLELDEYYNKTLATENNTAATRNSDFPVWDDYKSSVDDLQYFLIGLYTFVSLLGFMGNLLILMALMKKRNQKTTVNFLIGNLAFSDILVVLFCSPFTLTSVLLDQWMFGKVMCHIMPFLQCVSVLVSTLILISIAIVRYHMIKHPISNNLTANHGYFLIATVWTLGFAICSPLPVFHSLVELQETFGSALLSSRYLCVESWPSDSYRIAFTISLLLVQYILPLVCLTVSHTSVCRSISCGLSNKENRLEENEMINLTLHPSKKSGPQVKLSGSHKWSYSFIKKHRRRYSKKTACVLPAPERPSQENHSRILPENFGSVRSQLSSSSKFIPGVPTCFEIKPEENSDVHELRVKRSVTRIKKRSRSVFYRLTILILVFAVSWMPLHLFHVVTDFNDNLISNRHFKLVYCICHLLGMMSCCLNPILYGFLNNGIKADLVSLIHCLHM

[2] = target: T2, Neuropeptide Y receptor type 5 (Homo sapiens) (UniProt Q15761); assay: Tested for the inhibition of [125I]PYY binding to HEK 293 cells stably expressed with human neuropeptide NPY Y5 receptor at a concentration of 10e-7 M; format: cell-based; settings: HEK293
T2 sequence (whole entry): T1 sequence (Q15761 whole entry)

[3] = target: T2, Neuropeptide Y receptor type 5 (Homo sapiens); assay: Tested for the inhibition of [125I]PYY binding to HEK 293 cells stably expressed with human neuropeptide NPY Y5 receptor at a concentration of 10e-8 M; format: cell-based; settings: HEK293
[4] = target: T2, Neuropeptide Y receptor type 5 (Homo sapiens); assay: (§1) Tested for the inhibition of [125I]PYY binding to HEK 293 cells stably expressed with human neuropeptide NPY Y5 receptor at a concentration of 10e-6 M; format: cell-based; settings: HEK293
[5] = target: T2, Neuropeptide Y receptor type 5 (Homo sapiens); assay: Tested for the inhibition of [125I]PYY binding to HEK 293 cells stably expressed with human neuropeptide NPY Y5 receptor at a concentration of 10e-9 M; format: cell-based; settings: HEK293
[6] = target: T1, Neuropeptide Y receptor type 5; assay: Inhibitory concentration of total specific binding of [125I]- -PYY to HEK 293 cells transfected with the Human NPY-Y5 cDNA (compound prepared by parallel synthesis technique); format: cell-based, HEK293
[7] = Plasma concentration after oral administration of 100 mg/kg to rats; format: ADME, organism-based; design: dose 100 mg/kg, route oral; settings: rat
[8] = target: T1, Neuropeptide Y receptor type 5; assay: as §1; format: cell-based, HEK293
[9] = target: T1, Neuropeptide Y receptor type 5; assay: Tested for the inhibition of [125I]PYY binding to HEK 293 cells stably expressed with human neuropeptide NPY Y5 receptor; format: cell-based, HEK293

| Compound | IC50 [1] [nM] | inhibition [2] [%] | inhibition [3] [%] | inhibition [4] [%] | inhibition [5] [%] | IC50 [6] [nM] | Cmax [7] [ng/mL] | IC50 [8] [nM] | IC50 [9] [nM] |
| --- | --- | --- | --- | --- | --- | --- | --- | --- | --- |
| O=C(Nc1ccc(Oc2ccccc2)cc1)C1CCN(C(=O)Cn2c(=O)sc3ccc(Cl)cc32)CC1 | 1.5 | 99.4 | 94.5 | 97.2 | 53.2 | 0.85 |  |  |  |
| Cc1cccc(C(O)CNC(=O)C2CCN(C(=O)Cn3c(=O)sc4ccc(Cl)cc43)CC2)n1 (stereo unspecified) [FR-235208] |  |  |  |  |  |  | 15700 | 3.3 |  |
| O=C(c1ccccc1)c1cccc(NC(=O)C2CCN(C(=O)Cn3c(=O)sc4ccc(Cl)cc43)CC2)c1 | 0.89 | 101 | 80.5 | 102 | 45.3 | 1.4 |  |  |  |
| Cc1ccc2nc(NC(=O)C3CCN(C(=O)Cn4c(=O)sc5ccc(Cl)cc54)CC3)sc2c1 | 10 | 86.6 | 68.1 | 107 | 31.9 | 2.8 |  |  |  |
| O=C(Nc1ccc(F)c(C(F)(F)F)c1)C1CCN(C(=O)Cn2c(=O)sc3ccc(Cl)cc32)CC1 | 0.59 | 97.7 | 93.2 | 104 | 52.6 | 0.7 |  |  |  |
| CN(CCc1ccccn1)C(=O)C1CCN(C(=O)Cn2c(=O)sc3ccc(Cl)cc32)CC1 |  | -3.9 |  | 87.9 |  |  |  |  |  |
| COc1ccc(NC(=O)C2CCN(C(=O)Cn3c(=O)sc4ccc(Cl)cc43)CC2)cn1 | 2.3 | 88.5 | 70.3 | 94 | 29.9 | 2.6 |  |  |  |
| O=C(Nc1nc2cc(Cl)ccc2o1)C1CCN(C(=O)Cn2c(=O)sc3ccc(Cl)cc32)CC1 | 3.8 | 102 | 68.4 | 86.2 | 16.5 | 4.7 |  |  |  |
| COc1ccc(CNC(=O)C2CCN(C(=O)Cn3c(=O)sc4ccc(Cl)cc43)CC2)cc1 | 2.3 | 105 | 61.6 | 98 | 11.5 | 1.4 |  |  |  |
| O=C(NCCOS(=O)(=O)O)C1CCN(C(=O)Cn2c(=O)sc3ccc(Cl)cc32)CC1 |  |  |  | 19.9 |  |  |  |  |  |
| CCCCCCCCCCNC(=O)C1CCN(C(=O)Cn2c(=O)sc3ccc(Cl)cc32)CC1 | 1.3 | 106 | 89.6 |  |  | 2.6 |  |  |  |
| O=C(Nc1ccc(CCO)cc1)C1CCN(C(=O)Cn2c(=O)sc3ccc(Cl)cc32)CC1 | 1.7 | 101 | 74.6 | 84.7 | 28.7 | 2.9 |  |  |  |
| NS(=O)(=O)c1ccc(CCNC(=O)C2CCN(C(=O)Cn3c(=O)sc4ccc(Cl)cc43)CC2)cc1 | 6.1 | 88.8 | 44.7 | 102 | 19.5 | 9 |  |  |  |
| COCCNC(=O)C1CCN(C(=O)Cn2c(=O)sc3ccc(Cl)cc32)CC1 |  | 14.5 |  |  |  |  |  |  |  |

Further lines, results first:

| IC50 [1] [nM] | inhibition [2] [%] | inhibition [3] [%] | inhibition [4] [%] | inhibition [5] [%] | IC50 [6] [nM] | Cmax [7] [ng/mL] | IC50 [8] [nM] | IC50 [9] [nM] | Compound |
| --- | --- | --- | --- | --- | --- | --- | --- | --- | --- |
|  | 59.8 | -3.5 | 51.4 | -4.5 |  |  |  |  | O=C(Cn1c(=O)sc2ccc(Cl)cc21)N1CCC(C(=O)N2CCCc3ccccc32)CC1 |
| 1.2 | 97.1 | 79.4 | 108 | 47.8 | 1.1 |  |  |  | O=C(NCC(O)c1ccccc1)C1CCN(C(=O)Cn2c(=O)sc3ccc(Cl)cc32)CC1 (stereo unspecified) |
| 4.7 | 91.4 | 41.1 | 95 | 5.6 | 1.4 |  |  |  | Cc1cc(O)ccc1NC(=O)C1CCN(C(=O)Cn2c(=O)sc3ccc(Cl)cc32)CC1 |
| 0.59 | 98.5 | 76.8 | 100 | 41.5 | 2 |  |  |  | CC(=O)c1cccc(NC(=O)C2CCN(C(=O)Cn3c(=O)sc4ccc(Cl)cc43)CC2)c1 |
|  |  |  |  |  |  |  |  | 4.4 | O=C(Nc1ccccc1)C1CCN(C(=O)Cn2c(=O)sc3ccc(Cl)cc32)CC1 [FR-235656] |
|  |  |  |  |  |  |  |  | 0.23 | O=C(Nc1ccc(Cl)c2ccccc12)C1CCN(C(=O)Cn2c(=O)sc3ccc(Cl)cc32)CC1 [FR-236478] |
|  |  | 43.1 | 43.1 |  |  |  |  |  | O=C(Cn1c(=O)sc2ccc(Cl)cc21)N1CCC(C(=O)N2CCc3ccccc32)CC1 |
|  | 15.6 |  | 77.2 |  |  |  |  |  | O=C(Cn1c(=O)sc2ccc(Cl)cc21)N1CCC(C(=O)N2CCc3ccccc3C2)CC1 |
| 17 | 99 | 83.4 | 108 | 49.3 | 0.71 |  |  |  | O=C(Nc1cccc2ccccc12)C1CCN(C(=O)Cn2c(=O)sc3ccc(Cl)cc32)CC1 |
|  | 67.8 | -5.3 | 88.8 |  |  |  |  |  | Cc1cccc(O)c1NC(=O)C1CCN(C(=O)Cn2c(=O)sc3ccc(Cl)cc32)CC1 |
